# Test results reported in patent US20120149697A1 (priority 2009, published 2012).
# Test system: ScGT1 cells
# Details: for cells remained viable: mouse
Substance,cell viability (cytotoxicity effect),cells remained viable
fulvic acids [FA],remain viable,94%
humic acids [HA],remain viable,96%
